The text below walks through data of BindingDB's records for patent US9708333 (Incyte Corporation, 2017).

Assay [1] addresses T1, Phosphatidylinositol 4,5-bisphosphate 3-kinase catalytic subunit delta isoform (Homo sapiens, UniProt O00329).
T1 sequence (O00329 whole entry): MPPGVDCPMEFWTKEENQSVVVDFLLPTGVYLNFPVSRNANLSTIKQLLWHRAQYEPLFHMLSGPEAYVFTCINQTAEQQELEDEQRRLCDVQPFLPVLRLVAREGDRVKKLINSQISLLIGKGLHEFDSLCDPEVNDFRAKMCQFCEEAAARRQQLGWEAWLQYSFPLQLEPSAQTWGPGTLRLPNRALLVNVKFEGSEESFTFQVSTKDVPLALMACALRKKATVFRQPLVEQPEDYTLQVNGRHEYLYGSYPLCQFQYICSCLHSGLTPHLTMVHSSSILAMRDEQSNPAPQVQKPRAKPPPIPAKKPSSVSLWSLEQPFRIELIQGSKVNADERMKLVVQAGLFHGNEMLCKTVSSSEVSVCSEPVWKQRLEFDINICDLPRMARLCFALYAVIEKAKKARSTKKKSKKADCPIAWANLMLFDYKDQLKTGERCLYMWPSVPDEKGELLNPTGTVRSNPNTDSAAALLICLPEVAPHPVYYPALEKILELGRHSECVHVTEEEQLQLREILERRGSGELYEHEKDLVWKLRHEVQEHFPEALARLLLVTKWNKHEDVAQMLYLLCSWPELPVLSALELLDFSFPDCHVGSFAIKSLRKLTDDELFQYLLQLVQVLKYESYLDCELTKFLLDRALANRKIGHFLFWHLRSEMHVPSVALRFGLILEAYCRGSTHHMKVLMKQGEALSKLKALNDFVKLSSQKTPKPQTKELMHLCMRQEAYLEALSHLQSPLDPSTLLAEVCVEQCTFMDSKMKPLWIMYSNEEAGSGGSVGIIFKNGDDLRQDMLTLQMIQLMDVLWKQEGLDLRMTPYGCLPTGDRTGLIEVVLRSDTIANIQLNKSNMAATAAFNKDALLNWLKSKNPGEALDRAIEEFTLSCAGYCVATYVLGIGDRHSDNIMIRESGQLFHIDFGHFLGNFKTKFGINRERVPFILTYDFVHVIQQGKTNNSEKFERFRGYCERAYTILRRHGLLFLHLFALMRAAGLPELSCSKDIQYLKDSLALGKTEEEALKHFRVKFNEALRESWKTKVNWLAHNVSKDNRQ
As to the kind of experiment: PI3K Delta Assay.
Description: Selectivity can be measured by methods routine in the art. In some embodiments, selectivity can be tested at the Km ATP concentration of each enzyme. In some embodiments, the selectivity of compounds described herein can be determined by cellular assays associated with particular PI3K kinase activity.

The target of assay [2] is Tyrosine-protein kinase JAK1 (Homo sapiens, UniProt P23458). In words: JAK1 Assay.
Tyrosine-protein kinase JAK1, sequence (P23458 whole entry): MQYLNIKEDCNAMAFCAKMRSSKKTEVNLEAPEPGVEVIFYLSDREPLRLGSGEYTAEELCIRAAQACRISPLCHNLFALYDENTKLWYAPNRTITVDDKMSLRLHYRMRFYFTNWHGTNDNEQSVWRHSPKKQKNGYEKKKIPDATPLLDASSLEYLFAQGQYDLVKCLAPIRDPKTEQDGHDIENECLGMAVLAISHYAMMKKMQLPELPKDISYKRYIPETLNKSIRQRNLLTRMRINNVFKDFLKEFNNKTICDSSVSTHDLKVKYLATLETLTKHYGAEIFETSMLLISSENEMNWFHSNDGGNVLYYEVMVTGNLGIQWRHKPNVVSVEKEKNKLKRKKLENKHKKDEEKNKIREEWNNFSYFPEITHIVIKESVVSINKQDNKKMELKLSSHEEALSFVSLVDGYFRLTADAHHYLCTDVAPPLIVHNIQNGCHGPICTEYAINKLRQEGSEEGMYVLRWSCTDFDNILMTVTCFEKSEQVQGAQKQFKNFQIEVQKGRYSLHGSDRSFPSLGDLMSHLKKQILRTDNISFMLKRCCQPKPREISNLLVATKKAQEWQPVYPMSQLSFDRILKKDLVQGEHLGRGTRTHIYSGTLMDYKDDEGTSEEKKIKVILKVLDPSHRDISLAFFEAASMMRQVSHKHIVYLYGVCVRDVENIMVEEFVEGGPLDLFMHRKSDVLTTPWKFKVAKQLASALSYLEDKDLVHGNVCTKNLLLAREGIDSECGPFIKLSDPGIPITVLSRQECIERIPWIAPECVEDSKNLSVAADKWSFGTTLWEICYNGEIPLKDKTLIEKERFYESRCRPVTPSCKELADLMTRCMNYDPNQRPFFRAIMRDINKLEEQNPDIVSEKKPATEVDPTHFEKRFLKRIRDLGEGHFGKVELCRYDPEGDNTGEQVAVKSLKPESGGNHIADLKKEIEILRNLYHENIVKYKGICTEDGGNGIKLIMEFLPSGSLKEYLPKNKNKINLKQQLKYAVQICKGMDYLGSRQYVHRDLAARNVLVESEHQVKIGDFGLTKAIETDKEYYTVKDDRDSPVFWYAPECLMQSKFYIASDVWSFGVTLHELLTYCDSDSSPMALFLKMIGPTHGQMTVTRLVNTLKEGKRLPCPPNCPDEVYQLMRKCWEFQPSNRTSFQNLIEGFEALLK

In assay [1], `CCOc1c(C(C)n2nc(C)c3c(N)ncnc32)cc(Cl)c(F)c1C1CNC(=O)C1` (configuration not stated) [4-{3-[1-(4-amino-3-methyl-1H-pyrazolo[3,4 d]pyrimidin-1-yl)ethyl]-5-chloro-2-ethoxy-6-fluorophenyl}pyrrolidin-2-one] registered an IC50 of 125 nM.

In the case of `N#CCC(CN1CCN(C(=O)c2ccc(C#N)cc2F)CC1)n1cc(-c2ncnc3[nH]ccc23)cn1` (configuration not stated) [4-[(4-{3-cyano-2-[4-(7H-pyrrolo[2,3-d]pyrimidin-4-yl)-1H-pyrazol-1-yl]propyl}piperazin-1-yl)carbonyl]-3-fluorobenzonitrile], the IC50 in assay [2] was < 10 nM.
